# Reference: publication PMC6362118, “Pharmacophore-guided discovery of CDC25 inhibitors causing cell cycle arrest and tumor regression” (Scientific Reports, 2019)
# Read-outs that look alike come from different tables or passages of the source.
# Tests used:
# zebrafish embryos = type: in vivo; details: 10 µM (effective dose)
# Procedure: Implantation of HCT116 cells into zebrafish embryos were carried out essentially as previously described. Briefly, HCT116 cells were cultured in McCoy’s medium supplemented with 10% FCS and penicillin/streptomycin until ~80% confluence, then labeled for 30 min at 37 °C in 6 μg/mL 1,1′-dioctadecyl-3,3,3′,3′-tetramethylindocarbocyanine perchlorate (DiI, Sigma) in PBS followed by washing 3x in PBS. Labeled cells were implanted in the perivitelline space of 48 hours post-fertilization (hpf) wildtype (AB) zebrafish embryos, kept from the 1-cell stage in 1-phenyl-2-thiourea (PTU)-containing E3-water. […] As control, embryos were incubated in PTU-E3 with 0.1% DMSO (vehicle). Tumor-bearing embryos were incubated at 36 °C for three days and the change in tumor volume was evaluated as the size of the tumors at three days post-implantation (3 dpi) relative to the size immediately after implantation (0 dpi). Metastasis was evaluated at 3 dpi as the number of tumor cells present in the caudal hematopoietic plexus, the main metastatic site for tumors implanted in the perivitelline space.
# CDC25A = biological target: T1, CDC25A (Homo sapiens, UniProt P30304); experiment: Enzymatic assay (OMFP substrate) on recombinant CDC25A; type: biochemical; details: for remaining activity at 20 µM: compound 20 µM, relative to DMSO control; for IC50: dose-response on recombinant CDC25A
# T1 construct: GST (pGEX vector) (N); made in house; host or cells: E. coli BL21
# T1 sequence (P30304 1-524): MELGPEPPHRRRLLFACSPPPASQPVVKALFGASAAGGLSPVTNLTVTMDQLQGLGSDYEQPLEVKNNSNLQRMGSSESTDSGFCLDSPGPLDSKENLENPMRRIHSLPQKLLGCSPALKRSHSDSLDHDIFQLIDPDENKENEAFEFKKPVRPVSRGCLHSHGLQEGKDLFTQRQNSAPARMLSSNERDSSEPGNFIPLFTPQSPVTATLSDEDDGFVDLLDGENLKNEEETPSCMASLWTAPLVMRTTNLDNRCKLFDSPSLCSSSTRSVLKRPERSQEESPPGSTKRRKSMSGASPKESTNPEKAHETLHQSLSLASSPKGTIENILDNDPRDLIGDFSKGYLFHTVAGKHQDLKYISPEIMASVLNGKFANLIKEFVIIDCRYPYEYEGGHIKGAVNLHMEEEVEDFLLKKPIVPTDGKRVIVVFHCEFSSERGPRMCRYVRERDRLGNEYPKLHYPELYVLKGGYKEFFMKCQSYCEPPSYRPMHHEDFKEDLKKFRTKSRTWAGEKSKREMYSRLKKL
# Procedure: 57 UPD compounds were dissolved in DMSO at 10 mM stock concentration and stored in
# 60 Expression and purification of CDC25 phosphatases - CDC25A (kind gift of I.
# 61 Hoffmann, Heidelberg, Germany), CDC25B and CDC25C (kind gift of B. Gabrielli,
# 62 Queensland, Australia) in pGEX were expressed in E. coli BL21 cells and purified on 1
# 63 ml Glutathione Sepharose 4 Fast Flow columns as described 1.
# 65 Enzymatic assays - CDC25A, CDC25B and CDC25C were appropriately diluted in 10
# 66 mM Tris-HCl pH 8.0, 50 mM NaCl and assayed in 20 mM Tris-HCl pH 8.0, 75 mM
# 67 NaCl, 0.5 mM EGTA, 1 mM DTT, 0.1 mg/ml BSA and defined concentrations of
# 68 compounds. Reactions were started by addition of the substrate OMFP (0.1 mM). Assays
# 69 were carried out at room temperature in duplicate or triplicate using transparent-bottom,
# 70 V-shaped 96 well plates and read at defined intervals on a Molecular Devices
# 71 SpectraMax microplate reader (ex: 490 nm / em: 525 nm). IC50 and kinetic parameters
# 72 calculated from Lineweaver-Burk double-reciprocal plots of the data were obtained using
# 73 GraphPad Prism software. […]
# HeLa cells = experiment: Flow cytometric analysis of cell cycle progression (DNA content) in HeLa cells; type: cell-based; details: for effect on the G2/M transition: double-thymidine synchronized HeLa, 10 μM added 5 h upon release, analysed 12 h post-release; for progression through S-phase: HeLa, 10 µM added at release from double-thymidine block (early S-phase); for effect on cell cycle distribution (DNA content): asynchronous HeLa cells, 10 μM, 15 h
# Procedure: Reactions were started by addition of the substrate OMFP (0.1 mM). Assays 69 were carried out at room temperature in duplicate or triplicate using transparent-bottom, 70 V-shaped 96 well plates and read at defined intervals on a Molecular Devices 71 SpectraMax microplate reader (ex: 490 nm / em: 525 nm). IC50 and kinetic parameters 72 calculated from Lineweaver-Burk double-reciprocal plots of the data were obtained using 73 GraphPad Prism software. 74 75 Cell culture - Wild-type HeLa and Kyoto HeLa cells stably expressing mCherry-H2B 76 were maintained in DMEM+L-Glutamine (Gibco, Life Technologies, USA) 77 supplemented with 5% fetal calf serum (FCS) (Gibco) and penicillin-streptomycin (100 […] A549 and Colo741 were grown and maintained like HeLa 79 cells but with 10% FCS. HCT116 were maintained in McCoy's medium supplemented 80 with 10% FCS and penicillin-streptomycin. U2OS-Tet-OFF cells expressing HA-CDC25 81 were grown and maintained in DMEM+L-Glutamine, 10% Tet-free FCS and penicillin- 82 streptomycin in the presence or the absence of 4 μg/ml tetracycline (Sigma, T7660). 83 84 Cell synchronization - Cell synchronization was performed by double thymidine block- 85 release protocol 2 or nocodazole treatment 3 and verified by flow cytometry. 86 87 Cell viability assays - Compounds viability upon 48h treatment with the compounds was 88 assessed as described 4. Data were plotted with Prism 7® and analyzed by non-linear 89 regression. Comparison of single curve fitting to all data set within an experiment was 90 performed with the extra sum-of-squares F-test to determine P values. 91 92 Western blotting - Cell lysis and immunoblot analysis were performed as previously 93 described 5. […] Cells were washed with PBS, resuspended […] To 100 quantify phosphorylation of CDK1 at Tyr15 and H2AX at S139, cells were harvested and 101 examined as described 6. Samples were measured on an AttuneTM NxT Cytometer 102 (ThermoFisher Scientific, Carlsbad, CA, USA) and data were analyzed with FlowJo® 103 software v10 (FlowJo, LLC, Ashland, OR, USA). 104 105 Real Time qRT-PCR - Organoids were lysed in Tri-Reagent (Sigma) as previously 106 described 7 and total RNA was isolated as described by manufacturer's instructions. For […] 108 High Fidelity cDNA Synthesis kit (Roche). Real-time quantitative PCR reactions were 109 performed in three independent biological replicates, each with technical triplicate, using 110 the Applied Biosystems SYBR Green Kit and monitored by the ABI Prism 7900HT 111 system (Applied Biosystem). The following primers were used: 112 Lgr5: Forward [NT] and Reverse 5'- […] 114 Lysozyme: Forward [NT] and Reverse 5'- 115 [NT]3' 116 Cryptdin: Forward [NT] and Reverse 5'- 117 [NT]-binding protein (TBP): Forward [NT] and 119 Reverse [NT] 120 […] 122 amplification curves and the melting temperature analysis of the final amplification […] 4
# [1] = read-out: % remaining activity ± SD (Table S1, first round of selection)
"remaining activity at 20 µM (CDC25A; read-out: % remaining activity ± SD (Table S2, second round of selection)) [%]","mechanism of enzyme inhibition (CDC25A; kinetic analysis, mixed-model inhibition equation)",Ki (CDC25A; mixed-model inhibition equation) [µM],SMILES,tolerability / overt toxicity (zebrafish embryos),remaining activity at 20 µM (CDC25A; [1]) [%],IC50 (CDC25A) [µM],effect on the G2/M transition (HeLa cells),"effect on the G1/S transition (HeLa cells; HeLa synchronized at G2/M, 10 μM added in mid-G1, analysed 12 h post-release)",progression through S-phase (HeLa cells),effect on cell cycle distribution (DNA content) (HeLa cells)
–,–,–,"O=C1C=C(c2ccc(O)cc2O)C(=O)c2c(O)cccc21 [UPD-140, 2-(2′,4′-dihydroxyphenyl)-8-hydroxy-1,4-naphthoquinone]",well tolerated,0.1 ± 0.1,1.42,accretion of the G2/M peak,–,–,–
–,–,–,"O=C1C(c2ccc(O)cc2O)=CC(=O)c2c(O)cccc21 [UPD-176, 5-hydroxy-2-(2,4-dihydroxyphenyl)naphthalene-1,4-dione]",well tolerated,0,–,accretion of the G2/M peak,effectively blocked cells in G1,progression through S-phase was effectively held in check,accumulation of cells at G2/M
0,mixed mechanism of enzyme inhibition,1.18 ± 0.4,"COc1cccc(SC2=CC(=O)c3cccc(O)c3C2=O)c1 [UPD-795, 2-(3-methoxyphenylthio)-8-hydroxynaphthalene-1,4-dione]",–,–,1.25,–,–,progression through S-phase was effectively held in check,increase of the G1 population
